Patent US9090659B2, “RHAMM binding peptides” (London Health Sciences Centre Research Inc., priority 2010, dated 2015)
Ends that are not written are not given here. Peptide text beside a SMILES is read from it.

How the values were obtained:
RHAMM [1] = biological target: T1, RHAMM (Mus musculus, UniProt Q00547); assay: KD (nM)
T1 construct: Profinity eXact tag; made in house; host or cells: E. coli BL21 (D3), plasmid pPAL7-RHAMM
Excerpt: Table printed on a drawing sheet, FIG. 2 B
Head of the field: KD (nM)
The patent's description of the figure: FIG. 2 A illustrate the general structure of (a) unmodified tubulin-derived peptides, (b) tubulin-derived peptides conjugated to N-acetyl cysteine, and (c) tubulin-derived peptides conjugated to fluorescein isothiocyanate.
FIG. 2 B is a table of 17 synthesized tubulin-derived peptides, including peptides derivatized with fluorescein or N-acetyl cysteine, tubulin fragment type, calculated and observed mass spectrometry m/z values (m is representative of molecular or atomic mass and z is representative of the number of elementary charges carried by the ion), percent purity and binding constant Kd. FIG. 2 B discloses SEQ ID NOs: 1, 24-25, 2-3, 26-27, 4-9, 28-29, 10-11, 30-31, 12, 32-33, 13-14, 34-35 and 15-17, respectively, in order of appearance.
FIG. 2 B is a table which describes all 17 peptides prepared for this study. Sequences of 17 synthesized peptides encompass the CTTs of different tubulin subtypes as well as sequences directly flanking α1a- (SEQ ID NOs: 6, 7 and 8) and βIIIa-CTT (SEQ ID NOs: 13 and 14). […]
First copying reader's note: The table is continued on the next sheet (printed: continued on page 4/20).
Where the first naming reader finds the target: patent_title: RHAMM binding peptides

RHAMM [2] = biological target: T2, RHAMM (Mus musculus, UniProt Q00547); assay: SPR binding assay for kinetic constants, RHAMM flowed over immobilized peptides (GWC SPRimager II); details: peptide immobilized on sensor plate; RHAMM 500, 750, 1000 nM; 1:1 Langmuir binding model
T2 construct: Profinity eXact tag; made in house; host or cells: E. coli BL21 (D3), plasmid pPAL7-RHAMM
T2 sequence (Q00547 706-766): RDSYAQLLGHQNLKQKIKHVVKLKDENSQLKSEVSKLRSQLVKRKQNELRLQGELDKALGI
Method: After peptide screening, […] system was used to determine binding kinetic constants. Thiol-containing peptides at 1 nM concentration in milliQ water were immobilized on a maleimide-functionalized gold-plated chip for 3 hours. Excess peptides were removed by washing with milliQ water. For binding studies, a series of concentrations (500 nM, 750 nM, and 1000 nM) of RHAMM were injected over the immobilized peptides. After a 15 min dissociation phase, the sensor chip surface was regenerated for the next peptide sample injection, via treatment with two 10 min pulse injections of regenerating buffer (2 M NaCl in HBS-EP, pH 7.4) at […]. Baseline returned to the initial value after the regeneration step, confirming the removal of all bound analytes. Data were analyzed and the corresponding dissociation constants (KD) were obtained via non-linear regression fitting to a Langmuir binding model. In all experiments, reference subtraction was performed using data obtained from reference plate (no peptide) and peptide functionalized plate. The binding of the six peptides deduced in the previous section to RHAMM was quantified. Truncation studies indicate that the CTTs (i.e. the last 12 carboxy-terminal residues of S-peptides), were sufficient to induce MAP-directed microtubule assembly, thus placing a label spaced by a linker moiety on the amino terminus of CTT should not affect the peptide-protein interaction. Peptides were immobilized on the sensor plate and RHAMM was flowed over derivatized surface at different concentrations at a constant flow rate of 100 μL/min. FIG. 4 A depicts the resulting sensograms. Again, each sensograms has been corrected by subtracting each curve from a reference sensorgram (data acquired from the sensorgram without immobilized peptide) in order to account for refractive index differences between running buffer and sample solutions. Experimental sensograms were fitted with curves resulting from a kinetic model for a 1:1 Langmuir binding model. […]

RHAMM [3] = biological target: T2, RHAMM; assay: SPR-based screening of tubulin-derived peptides against immobilized RHAMM (ProteON XPR36); format: binding; details: peptides 10 μM injected over immobilized RHAMM
Method: ProteON XPR36 system was used for the selection and ranking of different tubulin derived peptides against RHAMM. For immobilization of RHAMM, the ProteON GLC sensor chip surfaces were activated by amine coupling using 100 mM EDAC and 24 mM sulfo-NHS. RHAMM (30 μg/mL in sodium bicarbonate buffer, pH 9.7) was injected at a flow a rate of 30 μl/min. A buffer sample was injected on a different sensor plate for use as a reference. Ethanolamine HCl (1M, pH 8.5) was then injected to deactivate any remaining surface groups. Peptides (10 μM in PBS-T, 2% DMSO) were injected to a RHAMM functionalized surface at 50 μL/min for 3 minutes followed by a 10 minute dissociation (i.e. injection of PBS-T buffer) period. The surfaces were regenerated using two injections of 30 μL of 1M NaCl prior to the injection of the next peptide. In all experiments, reference subtraction was performed using data obtained from reference plate (No RHAMM) and RHAMM functionalized plate.
A SPR (surface plasmon resonance)-based screening method was utilized for rapid and accurate determination of potential peptide candidates that are able to recognize the HA-binding domain of RHAMM. Seventeen tubulin-derived peptides were screened, and the resulting sensograms were used to deduce peptides which show affinity to RHAMM. Prior to screening, the optimal condition for ligand immobilization, in this instance RHAMM, to the sensor plate was determined. The optimal pH for the immobilization buffer balances the electrostatic attraction of the protein to the sensor plate while minimizing protein deactivation. In this study the optimal pH for immobilization was determined to be the pH that yielded the highest ligand density. RHAMM was coupled to the sensor plate using sodium bicarbonate buffer of varying pH, at a flow rate of 30 μL/min and with fixed concentration of EDAC and sulfo-NHS. The RHAMM ligand density for each pH immobilization condition was determined from the average SPR response of six measurements and the maximum ligand immobilization occurred at pH 9.7 (FIG. 3 A). Ligand immobilization was slightly lower than pH 10.1 due in part to loss of net charge on RHAMM at its isoelectric point.
After immobilization of RHAMM on the SPR sensor chip, injection of a series of tubulin derived peptides was carried out. Association of the peptides with RHAMM proceeded for 3 minutes and the dissociation in analyte free buffer was carried out for 10 minutes. […] For each peptide injection, control sensograms (no immobilized RHAMM and buffer injection) were subtracted from the test sensograms, and the chip surface was regenerated prior to the next peptide injection in order to remove any remaining bound peptides.

[4] = system: ascites-derived human EOC cells; assay: Cell viability (alamarBlue) of ascites-derived human EOC cells; format: cell-based; details: 7 and 0.7 uM, re-dosing everyday up to 6 days; p<0.05
Method: The ability of one RHAMM-binding peptide (SEQ ID NO: 1) to limit the proliferation of patient derived epithelial ovarian cancer tumors and the ability of another RHAMM-binding peptide (SEQ ID NO: 3) to reduce the viability of ascites-derived human EOC cells were examined. In these assays, epithelial ovarian cancer cells (derived from ascites of patients) were plated in a 96-well plate at density 5,000 cells/well and allowed to grow for 24 hours at 37° C. and 5% CO2. Peptides (1 uM and 10 uM) were added to cells on day one and proliferation was measured for 6 days. 1/10th volume of Alamar Blue reagent was added directly to cells in culture medium everyday for six days. Fluorescence was read at 570/590 nm. Data were obtained from mean of two experiments. Cells treated with just DMSO (dimethylsulfoxide) and “no-cell” control samples were included in the experiment.
Primary cells from patient sample EOC were seeded to a 24-well culture dish and 24 hours later treatment was initiated with the RHAMM-binding peptide SEQ ID NO: 3 (7 and 0.7 uM concentrations) or DMSO vehicle control. Re-dosing occurred everyday for up to 6 days and cell viability was assessed by fluorometry using alamarBlue™ reagent (measured in fluorescence units, FU).

Molecule	affinity to RHAMM in SPR screening (RHAMM [3])	further results
C[C@H](NC(=O)[C@H](CO)NC(=O)[C@@H](N)CC(=O)O)C(=O)N[C@@H](CC(=O)O)C(=O)NCC(=O)N[C@@H](CCC(=O)O)C(=O)N[C@@H](CC(=O)O)C(=O)N[C@@H](CCC(=O)O)C(=O)NCC(=O)N[C@@H](CCC(=O)O)C(=O)N[C@@H](CCC(=O)O)C(=O)N[C@@H](Cc1ccc(O)cc1)C(N)=O [SEQ ID NO. 2 | 2, Alpha Ia CTT (438-449)] (H-DSADGEDEGEEY-NH2; N-terminus assumed)	–	Kd (RHAMM [1]): < 1000 nM
CC(C)[C@H](NC(=O)[C@@H](N)CO)C(=O)N[C@@H](CCC(=O)O)C(=O)N[C@@H](C)C(=O)N[C@@H](CCC(=O)O)C(=O)N[C@@H](C)C(=O)N[C@@H](CCC(=O)O)C(=O)N[C@@H](CCC(=O)O)C(=O)NCC(=O)N[C@@H](CCC(=O)O)C(=O)N[C@@H](CCC(=O)O)C(=O)N[C@@H](Cc1ccc(O)cc1)C(N)=O [SEQ ID NO. 3 | 3a, Alpha IIIc CTT (439-450)] (H-SVEAEAEEGEEY-NH2; N-terminus assumed)	–	Kd (RHAMM [1]): 331 nM
CC(C)[C@H](N)C(=O)N[C@@H](CCC(=O)O)C(=O)NCC(=O)N[C@@H](CCC(=O)O)C(=O)NCC(=O)N[C@@H](CCC(=O)O)C(=O)N[C@@H](CCC(=O)O)C(=O)N[C@@H](CCC(=O)O)C(=O)NCC(=O)N[C@@H](CCC(=O)O)C(=O)N[C@@H](CCC(=O)O)C(=O)N[C@@H](Cc1ccc(O)cc1)C(N)=O [SEQ ID NO: 1] (H-VEGEGEEEGEEY-NH2)	–	Kd (RHAMM [2]): 24 nM
C[C@H](NC(=O)[C@H](CCC(=O)O)NC(=O)[C@H](CCC(=O)O)NC(=O)[C@H](CCC(=O)O)NC(=O)[C@H](C)NC(=O)[C@H](CCC(=O)O)NC(=O)[C@H](CCC(=O)O)NC(=O)CNC(=O)[C@H](Cc1ccccc1)NC(=O)[C@H](CC(=O)O)NC(=O)[C@H](CCC(=O)O)NC(=O)[C@@H](N)CCC(=O)O)C(N)=O [SEQ ID NO: 9] (H-EEDFGEEAEEEA-NH2)	–	Kd (RHAMM [2]): 32 nM
CSCC[C@H](NC(=O)[C@H](CC(N)=O)NC(=O)[C@H](CO)NC(=O)[C@H](CCC(=O)O)NC(=O)[C@H](C)NC(=O)[C@H](CCC(=O)O)NC(=O)[C@@H](NC(=O)[C@@H](N)Cc1ccccc1)[C@@H](C)O)C(=O)N[C@@H](CC(N)=O)C(=O)N[C@@H](CC(=O)O)C(=O)N[C@@H](CC(C)C)C(=O)N[C@H](C(N)=O)C(C)C [SEQ ID NO: 14] (H-FTEAESNMNDLV-NH2)	–	Kd (RHAMM [2]): 30 nM
SEQ ID NO: 2: synthesized tubulin-derived 12-residue peptide containing DEXEEZ motif (DSADGEDEGEEY)	failed the initial screening	–
SEQ ID NO: 3: synthetic αIIIc tubulin CTT peptide containing EEXEEZ motif (SVEAEAEEGEEY)	enhanced affinity to RHAMM	viability of EOC cells (fluorescence units) [4]: reduced viability
SEQ ID NO: 4: synthesized tubulin-derived 12-residue peptide containing DEXEEZ motif (IDSYEDEDEGEE)	failed the initial screening	–
SEQ ID NO: 10: synthesized tubulin-derived 12-residue peptide containing EEXEDZ motif (GEFEEEEGEDEA)	failed the initial screening	–
SEQ ID NO: 11: synthetic βIV-CTT tubulin peptide containing EEXEEZ motif (GEFEEEAEEEVA-NH2)	enhanced affinity to RHAMM	–
SEQ ID NO: 12: synthesized tubulin-derived 12-residue peptide of FIG. 2B (EAFEDEEEEIDG)	enhanced affinity to RHAMM	–
